According to article PMC10287566, “Signaling-specific inhibition of the CB1 receptor for cannabis use disorder: phase 1 and phase 2a randomized trials” (Nature Medicine, 2023):
Where two headings read alike, the source gives them in different places.

Key:
rats = assay: Irwin test and body temperature (GLP); assay type: in vivo; details: rats, GLP
Description: The study involved four groups of six male Wistar rats weighing between 154.0 g and 185.9 g. […] On study day, animals were first scored by the Irwin standardized observation battery, and body temperature was measured. […] Irwin scores and measurement of body temperature were done again at 1, 3, 6, 8 and 24 h after dose.

THC behavioral effects = assay: Inhibition of THC effects in vivo (summary over behavioral models); design: species or system mice, rats and non-human primates
Description: Statistical analyses were carried out using GraphPad Prism, Statistica (Statsoft) or SigmaPlot (Systat Software) software. […] When appropriate, significant main effects were analyzed by subsequent multiple paired comparisons or multiple comparisons versus the control group using the appropriate post hoc test (Dunnett, Tukey or Sidak test). Different but similar post hoc tests were used because the experiments were performed by independent research groups that used similar but not identical statistical procedures. […] For non-parametric analysis, a Kruskal–Wallis ANOVA was used, followed, when appropriate, by the Mann–Whitney test for pairwise comparisons. Unless otherwise stated, all the performed statistical tests were two-sided. The ID50 or IC50 was estimated by nonlinear regression using the ‘log(inhibitor) versus response’ equation model with GraphPad Prism software. All results are expressed as mean ± s.e.m. The significance threshold was set at P < 0.05.

squirrel monkeys = assay: THC-induced reinstatement of THC seeking in squirrel monkeys; assay type: in vivo, Saimiri sciureus
Text: Two experimental models were used: (1) THC i.v. self-administration and (2) THC-induced reinstatement of THC seeking. These two approaches were used to model the maintenance of daily cannabis use and cannabis seeking after a period of abstinence.
For the THC-induced reinstatement of THC seeking, the monkeys underwent daily extinction sessions during which lever presses led to vehicle infusions and the visual cues previously paired with THC infusions but not THC. […] THC injections were given immediately before the start of the test sessions. During testing, lever presses (FR10) continued to produce only vehicle injections and the THC-paired cues. […] Recommendations from the Guide for the Care and Use of Laboratory Animals (8th edition) and guidelines of the Institutional Animal Care and Use Committee of the Intramural Research Program, NIDA, NIH, DHHS, were followed. Animals were maintained in facilities fully accredited by the AAALAC. Operation of the experimental chambers and data collection were controlled by IBM computers using the MED Associates MED-PC software package.

mice = assay: THC-induced impairment of long-term memory (object recognition); assay type: in vivo
healthy volunteers [1] = assay: Phase 1 single-ascending-dose (SAD) study, safety
Description: Four single oral dose levels (0.2, 0.6, 2 and 6 mg) were given in the morning on day 1 in the SAD study, and three oral doses (0.6, 2 and 6 mg) were given in the morning of day 1 to day 7 in the MAD study, to independent dose cohorts. […] Each dose cohort comprised eight volunteers (six (5/1) active and two (1/1) placebo per dose level).
During the rest of the study, only volunteers with pathological values were excluded.
Participants were admitted to the research clinic at midday before dosing (day −1). In the SAD study, they remained in-house until day 8 for PK and PD samples and safety assessments. In the MAD study, participants remained in-house until day 14 and returned to the research facility on an outpatient basis to have PK and safety assessments at 216 h and 264 h (day 16 and day 18) after their last dose (day 7). Safety monitoring (physical examinations, vital sign measurements, 12-lead ECGs, clinical safety laboratory tests and AE monitoring) were performed throughout the studies. Psychometrics tests (Bond & Lader VAS, Addiction Research Center Inventory (49-item short form) (ARCI-49) and Profile of Mood States 65 self-report items (POMS-65)) and the Columbia-Suicide Severity Rating Scale (C-SSRS) test were performed at baseline, before dose and at 4 h and 24 h after dose on day 1 and day 7 (MAD study, only) and C-SSRS only at 24 h.
All participants who had AEs, whether considered associated with the use of the investigational product or not, were monitored for as long as needed to determine resolution.

[2] = SAD study, plasma pharmacokinetics; assay type: in vivo; details: human, oral; for Cmax: read-out: Cmax, mean (±SD); for half-life: SAD, evaluated 0-144 h, underestimated, read-out: t½, min-max
Description: For both SAD and MAD studies, the PK parameters were calculated using standard non-compartmental methods for those with sufficient plasma concentration data.

healthy volunteers [3] = assay type: in vivo, human; details: MAD
[4] = Reinstatement of THC self-administration

COc1ccc(CO[C@H]2CC[C@@]3(C)C(=CC[C@H]4[C@@H]5CC[C@H](C(C)=O)[C@@]5(C)CC[C@@H]43)C2)cc1 [AEF0117, 3β-(4-methoxybenzyloxy)pregn-5-en-20-one]
adverse effects on behavior (Irwin test) and body temperature (rats): did not show any adverse effects
most observed ID50 for inhibiting the effects of THC (THC behavioral effects; mice and non-human primates, oral): 5 µg/kg
most observed ID50 for inhibiting the effects of THC (THC behavioral effects; mice, rats and non-human primates): 5 µg/kg
ID100 for THC effects in fewer cases (THC behavioral effects; oral, 3 h before THC): 1.5 µg/kg
most frequently observed ID100 for THC effects (THC behavioral effects; oral, 3 h before THC): 15 µg/kg
reinstatement of THC seeking (squirrel monkeys; 1.5 µg kg^−1 oral): significantly reduced
% Inhibition (squirrel monkeys; [4]): 80%
ID100 (squirrel monkeys; [4]): ≤ 1.5 µg/kg
THC's effects on long-term object recognition memory (mice): inhibited
% Inhibition (mice; Impairment of long-term memory): 100%
ID100 (mice; Impairment of long-term memory): ≤ 5 µg/kg
Number of TEAEs (healthy volunteers [1]; single 0.2 mg): 4 E
Number of participants with a TEAE leading to discontinuation (healthy volunteers [1]; single 0.2 mg): 0 n (%)
Number of participants with an SAE (healthy volunteers [1]; single 0.2 mg): 0 n (%)
Number of participants with at least one TEAE (healthy volunteers [1]; single 0.2 mg): 2 (33.3) n (%)
Participants with TEAE: Mild (healthy volunteers [1]; single 0.2 mg): 2 (33.3) n (%)
Participants with TEAE: Moderate (healthy volunteers [1]; single 0.2 mg): 1 (16.7) n (%)
Participants with TEAE: Not related (healthy volunteers [1]; single 0.2 mg): 1 (16.7) n (%)
Participants with TEAE: Severe (healthy volunteers [1]; single 0.2 mg): 0 n (%)
TEAEs by SOC: Gastrointestinal disorders (healthy volunteers [1]; single 0.2 mg): 2 (33.3) n (%)
TEAEs by SOC: Investigations (healthy volunteers [1]; single 0.2 mg): 0 n (%)
TEAEs by SOC: Nervous system disorders (healthy volunteers [1]; single 0.2 mg): 1 (16.7) n (%)
Number of TEAEs (healthy volunteers [1]; single 0.6 mg): 0 E
Number of participants with a TEAE leading to discontinuation (healthy volunteers [1]; single 0.6 mg): 0 n (%)
Number of participants with an SAE (healthy volunteers [1]; single 0.6 mg): 0 n (%)
Number of participants with at least one TEAE (healthy volunteers [1]; single 0.6 mg): 0 n (%)
Participants with TEAE: Mild (healthy volunteers [1]; single 0.6 mg): 0 n (%)
Participants with TEAE: Moderate (healthy volunteers [1]; single 0.6 mg): 0 n (%)
Participants with TEAE: Not related (healthy volunteers [1]; single 0.6 mg): 0 n (%)
Participants with TEAE: Related (healthy volunteers [1]; single 0.6 mg): 0 n (%)
Participants with TEAE: Severe (healthy volunteers [1]; single 0.6 mg): 0 n (%)
TEAEs by SOC: Gastrointestinal disorders (healthy volunteers [1]; single 0.6 mg): 0 n (%)
TEAEs by SOC: Investigations (healthy volunteers [1]; single 0.6 mg): 0 n (%)
TEAEs by SOC: Nervous system disorders (healthy volunteers [1]; single 0.6 mg): 0 n (%)
Number of TEAEs (healthy volunteers [1]; single 2 mg): 2 E
Number of participants with a TEAE leading to discontinuation (healthy volunteers [1]; single 2 mg): 0 n (%)
Number of participants with an SAE (healthy volunteers [1]; single 2 mg): 0 n (%)
Number of participants with at least one TEAE (healthy volunteers [1]; single 2 mg): 1 (8.3) n (%)
Participants with TEAE: Mild (healthy volunteers [1]; single 2 mg): 1 (8.3) n (%)
Participants with TEAE: Moderate (healthy volunteers [1]; single 2 mg): 0 n (%)
Participants with TEAE: Not related (healthy volunteers [1]; single 2 mg): 0 n (%)
Participants with TEAE: Severe (healthy volunteers [1]; single 2 mg): 0 n (%)
TEAEs by SOC: Gastrointestinal disorders (healthy volunteers [1]; single 2 mg): 0 n (%)
TEAEs by SOC: Investigations (healthy volunteers [1]; single 2 mg): 1 (8.3) n (%)
TEAEs by SOC: Nervous system disorders (healthy volunteers [1]; single 2 mg): 0 n (%)
Number of TEAEs (healthy volunteers [1]; single 6 mg): 0 E
Number of participants with a TEAE leading to discontinuation (healthy volunteers [1]; single 6 mg): 0 n (%)
Number of participants with an SAE (healthy volunteers [1]; single 6 mg): 0 n (%)
Number of participants with at least one TEAE (healthy volunteers [1]; single 6 mg): 0 n (%)
Participants with TEAE: Mild (healthy volunteers [1]; single 6 mg): 0 n (%)
Participants with TEAE: Moderate (healthy volunteers [1]; single 6 mg): 0 n (%)
Participants with TEAE: Not related (healthy volunteers [1]; single 6 mg): 0 n (%)
Participants with TEAE: Related (healthy volunteers [1]; single 6 mg): 0 n (%)
Participants with TEAE: Severe (healthy volunteers [1]; single 6 mg): 0 n (%)
TEAEs by SOC: Gastrointestinal disorders (healthy volunteers [1]; single 6 mg): 0 n (%)
TEAEs by SOC: Investigations (healthy volunteers [1]; single 6 mg): 0 n (%)
TEAEs by SOC: Nervous system disorders (healthy volunteers [1]; single 6 mg): 0 n (%)
Cmax ([2]; both sexes, SAD Day 1, 2 mg): 14.7 ± 4.3 ng/mL
Tmax ([2]; both sexes, SAD Day 1, 2 mg, read-out: tmax, median (range)): 3 h
half-life ([2]; both sexes, 0.6 mg): 75.9 to 229 h
Tmax ([2]; healthy volunteers, read-out: Tmax): ~3 h
Cmax ([2]; SAD Day 1, 0.2 mg): 1.3 ± 0.3 ng/mL
Tmax ([2]; SAD Day 1, 0.2 mg, read-out: tmax, median (range)): 3 h
Cmax ([2]; SAD Day 1, 0.6 mg): 3.5 ± 1 ng/mL
Tmax ([2]; SAD Day 1, 0.6 mg, read-out: tmax, median (range)): 2.5 h
Cmax ([2]; SAD Day 1, 6 mg): 38.6 ± 8.1 ng/mL
Tmax ([2]; SAD Day 1, 6 mg, read-out: tmax, median (range)): 2 h
half-life ([2]; 2 mg): 84.4 to 180 h
half-life ([2]; 6 mg): 69.3 to 162 h
Tmax ([2]; healthy volunteers, SAD and MAD, read-out: median tmax): 2 to 3 h
ARCI 49 sub-scores (healthy volunteers [3]; 0.6-6 mg vs placebo): No relevant trend
Bond and Lader VAS (alertness, contentedness, calmness) (healthy volunteers [3]; 0.6-6 mg vs placebo): No relevant differences between groups
POMS 65 derived sub-scores (healthy volunteers [3]; 0.6-6 mg vs placebo, except one outlier participant): no dose related trend
C-SSRS: number of subjects with suicidal ideation or behavior (healthy volunteers [3]; all doses 0.6-6 mg, Day 1 and Day 8): 0 n (%)
